Test results taken from patent US20250281629A1, “COMPOSITIONS AND METHODS FOR ANTI-PHOSPHOCHOLINE ACTIVE IMMUNOTHERAPY” (Duke University, priority 2022, published 2025).
Where no end group is shown, it is not given here. C11H22NO6P = phosphorylcholine group attached via 2-methacryloyloxyethyl phosphorylcholine

Key:
[1] = tested on: mouse anti-PC IgM monoclonal antibody (Clone: BH8); assay: ELISA for measuring nanofiber epitope reactivity; format: binding; settings: nanofibers coated at 0.2 mM; PC-BSA positive control
Procedure: ELISA for Measuring Nanofiber Epitope Reactivity. The reactivity of PC conjugation methods was determined via binding of a mouse anti-PC IgM monoclonal antibody (Clone: BH8) (Sigma, MABF2084) to nanofibers. Nanofibers were diluted to 0.2 mM and coated onto 96-well plates at 4° C. overnight. PC-BSA (Biosearch Technologies, PC-1011-10) was coated at 20 μg/mL in 1×PBS overnight as a positive control, and PBS was used as a negative control. The next day, the plates were washed using 1×PBS with 0.05% Tween 20 (1×PBST) and then blocked with Superblock blocking buffer solution (Thermo Fisher, 37515) three times. This was followed by the addition anti-PC IgM which was serially diluted in 1% BSA in 1×PBST by 5-fold steps beginning from 1:100 (5 μg/mL) and allowed to incubate for 2 h at room temperature. Anti-PC IgM bound to nanofibers was then detected with HRP-conjugated goat anti-mouse IgM (Southern Biotech, 1021-05) and the absorbance values at 450 nm were measured.

C57BL/6 mice = assay: Serum anti-PC antibody responses of immunized mice via ELISA (PC-BSA coated); format: in vivo, mouse
Procedure: Mice and Immunizations. Female C57BL/6 mice (Envigo) age 6-10 weeks were used to initiate experiments except for the Il10^−/− colitis study where female B6.129P2-Il10^tm1Cgn/J (The Jackson Laboratory) mice age 5-7 weeks were used. While female mice were used for most experiments, age-matched male C57BL/6 mice (Envigo) were used in a one cycle acute DSS colitis model to confirm efficacy across sexes. Mice were housed at Duke University. All experimental procedures were performed on protocols (A264-18-11 and A199-21-09) approved by the Duke University Institutional Animal Care and Use Committee (IACUC). For subcutaneous immunizations, anesthetized mice were injected once behind each shoulder with 50 μL of 2 mM peptide nanofiber solution or 1×PBS. For intraperitoneal immunizations, mice were injected with 100 μL of 2 mM peptide nanofiber solution or 1×PBS. Nanofiber immunizations with adjuvant contained 10 μg CpG (ODN 1826, IAX-200-002-3001, Innaxon). For injections of only CpG, 10 μg of CpG in 100 μL 1×PBS was used. Mice were typically given three immunizations, with the specific boosting schedules stated in each figure caption, usually at weeks 0, 2, and 4, as this was determined to produce robust antibody responses in a short time frame.
Detection of Anti-PC Antibody Responses via ELISA. Anti-PC antibody responses in serum collected from the submandibular vein in mice were measured using ELISA. Briefly, plates were coated with 20 μg/mL PC-BSA (Biosearch Technologies, PC-1011-10) in 1×PBS or just 1×PBS at 4° C. overnight. The next day, the plates were washed using 1×PBST (1×PBS with 0.05% Tween 20) and then blocked three times with Superblock blocking buffer solution (Thermo Fisher, 37515). Serum diluted from 1:10^2 to 1:10^5 in 1% BSA in 1×PBST was the added to the plate and allowed to incubate for 2 h at room temperature. Anti-PC IgG was detected using HRP-conjugated Fcγ fragment-specific goat anti-mouse IgG (Jackson Immuno Research, 15-035-071). IgG subclasses and IgM anti-PC antibodies were detected using Southern Biotech HRP-conjugated goat anti-mouse antibodies (IgG1, IgG2b, IgG2c, IgG3, & IgM: 5300-05B). Area under the curve (AUC) measurements were calculated using background-subtracted absorbance values at dilutions from 1:10^2 to 1:10^5. Antibody titers were defined using an absorbance cutoff above background of 0.2 OD, where titer 2 represents an OD value greater than 0.2 at 1:10^2 dilution and so on up to titer 5 at 1:10^5 dilution.

B1a cells (CD19+CD5+) = assay: Nanofiber uptake in i.p. lavage cells, flow cytometry: B1a cells; format: in vivo, mouse
Procedure: (§1) Nanofiber Uptake and Evaluation. The cell types present and their propensity to uptake nanofibers in the i.p. space was tested by injecting mice i.p. with 100 μL of 2 mM TAMRA-labeled fluorescent nanofibers. 4 hours later, mice were euthanized and i.p. lavage was conducted via the injection of 2 mL of cold 1×PBS into the peritoneal cavity and massaging the abdomen for 30 seconds. The solution was then carefully extracted from the i.p. space and the cells were isolated followed by rinsing with ice cold flow buffer (2% heat-inactivated FBS in 1×PBS). The cells present were treated with mouse BD Fc Block (Clone: 2.4G2) (BD Biosciences, 553142) in flow buffer on ice for 30 min and then washed and stained with antibodies against the following markers: CD5-APC (Clone: 53-7.3) (BioLegend, 100626), F4/80-PerCP/Cy5.5 (Clone: BM8) (BioLegend, 123128), CD19-APC/Cy7 (Clone: 6D5) (BioLegend, 115530), CD11c-PE/Cy7 (Clone: N418) (BioLegend, 117318), and CD86-BV605 (Clone: GL1) (BD Biosciences, 2272591) in flow buffer for 30 min on ice. TAMRA-fluorescence as an indication of nanofiber uptake was measured on the PE channel. Cells were then washed in flow buffer and stained with DAPI. Flow cytometry was conducted on a BD FACSCanto II cytometer and the results were analyzed using FlowJo software.

[2] = tested on: dendritic cells (F4/80−CD11c+); assay: Nanofiber uptake in i.p. lavage cells, flow cytometry: dendritic cells; format: in vivo, mouse; settings: 4 hours after i.p. injection of TAMRA-labeled nanofibers
Procedure: as §1

macrophages (F4/80+) = assay: Nanofiber uptake in i.p. lavage cells, flow cytometry: macrophages; format: in vivo, mouse; settings: 4 hours after i.p. injection of TAMRA-labeled nanofibers
Procedure: as §1

Row | Substance | binding of anti-PC mAb to nanofibers [1] | antibody response against PC-BSA (serum total anti-PC IgG) (C57BL/6 mice; s.c. or i.p., weeks 0, 3, 11, with PADRE-Q11, PC-Q11 vs pa-PC-Q11) | CD86 activation marker on TAMRA+ B1a cells vs non-B1a cells (B1a cells (CD19+CD5+); 4 hours after i.p. injection) | DCs that acquired nanofibers [2] | macrophages staining positively for nanofibers (macrophages (F4/80+)) | anti-PC antibody levels on increasing epitope content 2.5 times (C57BL/6 mice; 0.5 mM (25%) vs 0.2 mM (10%) PCM-Q11, i.p. with CpG) | anti-PC IgG responses, PCM-Q11 vs PC-Q11 (C57BL/6 mice; i.p., weeks 0, 2, 4, both coassembled with PADRE-Q11) | TAMRA MFI of B1a cells (B1a cells (CD19+CD5+); 4 hours after i.p. injection) | B1a cells stained positively for nanofibers (B1a cells (CD19+CD5+); 4 hours after i.p. injection of TAMRA-labeled nanofibers) | B1a cells among total TAMRA+ cells (B1a cells (CD19+CD5+); total TAMRA+ cells categorized by cell type)
1 | C11H22NO6P-CSGSG-QQKFQFQFEQQ-NH2 (C(C11H22NO6P)SGSGQQKFQFQFEQQ-NH2) [PC-Q11, phosphodiester PC-Q11] | bound | significantly greater antibody response | not seen | about 67% | almost all macrophages staining positively for nanofibers |  |  |  |  | 
2 | (C11H22NO6P)n-CCCCSGSG-QQKFQFQFEQQ-NH2 (CCCCSGSGQQKFQFQFEQQ-NH2; not fully specified; cysteine pairing not given here; also: phosphorylcholine groups (C11H22NO6P) n=1-4, attachment not placed) [PCM-Q11, linear multi-PC conjugate] | increased binding of an anti-PC mAb compared to PC-Q11 nanofibers and PC-BSA |  | selective elevation on B1a cells | < 30% | almost all macrophages staining positively for nanofibers | no significant change in the response elicited | significantly greater than i.p. immunization with PC-Q11 | selective uptake | about 75% | acquired by a substantial B1a cell population
